Experiments:
[1] = test system: TG neurons; experiment: Calcium imaging in TG neurons of Pirt-GCaMP3 mice; type: cell-based, mouse; settings: histamine 500 μM, CQ 1000 μM, AITC 200 μM; for TG neurons responding (calcium): miR-711 50 μM, 204 neurons
Experimental: (§1) Primary Cultures of Mouse and Human Sensory Neurons. […] Cells were mechanically dissociated with a flame polished Pasteur pipette in the presence of 0.05% DNase I (Sigma).
(§2) Ca^2+ Imaging. […] The imaging buffer includes 140 mM NaCl, 10 mM D-(+)-Glucose, 1 mM MgCl2, 2 mM CaCl2, 5 mM KCl, 10 mM HEPES, pH=7.4, osmolarity=320 mOsm/L. Calcium signals were measured using green emitted light in a 3 s interval. Ca ^2+ signal amplitudes were presented as ΔF/F0=(Ft−F0)/F0 as ratio of fluorescence difference (Ft−F0) to basal value (F0). The average fluorescence intensity in the baseline period was taken as F0. Ca ^2+ imaging was also analyzed in HEK293-TRPA1 cell line after loading cells with […] fura2-AM (Invitrogen) for 40 min in the Ca^2+ imaging buffer. Ca^2+ imaging protocol was a ratio metric method with 340/380-nm wavelength light for dual excitation. Data were presented as ΔR/R0, determined as the fraction ΔR (Rt−R0) of the increase of a given ratio over baseline ratio (R0).

[2] = test system: DRG neurons; experiment: Calcium imaging in cultured DRG neurons of Pirt-GCaMP3 mice; type: cell-based, mouse; settings: histamine 500 μM, CQ 1,000 μM, AITC 200 μM; for DRG neurons showing Ca2+ increase / responses: miR-711 50 μM, 544 neurons from 3 mice
Experimental: as §1, §2

[3] = test system: CTCL mice; experiment: Mouse CTCL xenograft model of chronic itch; type: in vivo; settings: given 20 days after Myla cell inoculation; hsa-miR-711 inhibitor 100 μM, HC030031 200 μM, A967079 50 μM, peptides 2 mM
Experimental: Mouse CTCL Xenograft Model of Chronic Itch. We developed a murine xenograft model of cutaneous T cell lymphoma (CTCL) using immune-deficient mice (NOD.CB17-Prkdcscid, 8-10 weeks old, male). CD4^+ MyLa cell line was purchased from Sigma (Ca #95051032). The cell line was established from a plaque biopsy of a person with mycosis fungoides stage II by inclusion of IL-2 and IL-4 in the culture medium. CTCL was generated via intradermal injection of CD4^+ Myla cells (1×10^5 cells/μl, 100 μL) on the nape of the neck. Tumor growth was assessed for 40 days by measurements of tumor diameters.
(§3) Behavioral Assessment for Scratching (Itch) and Wiping (Pain). Mice were shaved on the cheek or nape after a brief anesthesia with isoflurane. Before experiments, mice were habituated in small plastic chambers (14×18×12 cm) daily for two days. The room temperature and humidity remained stable for all the experiments. […] After the injection, the number of scratches in 60 min was counted. A scratch was counted when a mouse lifted its hind paw to scratch the shaved region and returned the paw to the floor or to the mouth. A bout of wiping was defined as a continuous wiping movement with a forepaw directing at the area of the injection area (Shimada and LaMotte, Pain 2008, 139, 681-687). Scratching and wiping behavior was videoed for 30 min or 60 min using Sony HDR-CX610 camera. The video was subsequently played back offline and the numbers of scratches and wipes were quantified in a blinded manner.
Generation of Myla Stable Cell Line Expressing miR-711 Inhibitor. CD4^+ Myla cells were plated at a density of 2×10^5 cells/mL in 2 mL culture media in 6-well plates. For each well, 20 μL of the MISSION Lenti microRNA Inhibitor (hsa-miR-711) lentivirus (Sigma) with a titer of 2.6×10^7 Tu/mL were added. Cell mixtures were incubated at 37° C. for 48 hr, washed with PBS three times, and re-suspended in fresh culture media, and 24 hr later, 1 μg/mL puromycin was added to the cells to select stably transduced cell populations. We tried to grow and passage the cells as much as necessary (usually 3 days) and maintained selection pressure by keeping 1 μg/mL puromycin in the medium. After 4 weeks, a large number of the cells were killed; the remaining cells retained the expression of the plasmid, which stably integrates into the genome of the targeted cells. These cells were used for inoculation to generate the CTCL model for testing the effects of miR-711 inhibitor on chronic itch and tumor growth.

[4] = test system: naive mice; type: in vivo, mouse; settings: naive mice; for scratching (itch) after intradermal cheek injection / wiping (pain) after intradermal cheek injection: 1 mM, 5 μL
Experimental: as §3

[5] = target: hTRPA1 (Homo sapiens, UniProt O75762); experiment: Whole-cell patch clamp, inward currents in HEK293 cells expressing hTRPA1; type: cell-based; settings: bath application; miRNAs and core sequence 10 μM, AITC 50 μM
Sequence of hTRPA1 (O75762 whole entry): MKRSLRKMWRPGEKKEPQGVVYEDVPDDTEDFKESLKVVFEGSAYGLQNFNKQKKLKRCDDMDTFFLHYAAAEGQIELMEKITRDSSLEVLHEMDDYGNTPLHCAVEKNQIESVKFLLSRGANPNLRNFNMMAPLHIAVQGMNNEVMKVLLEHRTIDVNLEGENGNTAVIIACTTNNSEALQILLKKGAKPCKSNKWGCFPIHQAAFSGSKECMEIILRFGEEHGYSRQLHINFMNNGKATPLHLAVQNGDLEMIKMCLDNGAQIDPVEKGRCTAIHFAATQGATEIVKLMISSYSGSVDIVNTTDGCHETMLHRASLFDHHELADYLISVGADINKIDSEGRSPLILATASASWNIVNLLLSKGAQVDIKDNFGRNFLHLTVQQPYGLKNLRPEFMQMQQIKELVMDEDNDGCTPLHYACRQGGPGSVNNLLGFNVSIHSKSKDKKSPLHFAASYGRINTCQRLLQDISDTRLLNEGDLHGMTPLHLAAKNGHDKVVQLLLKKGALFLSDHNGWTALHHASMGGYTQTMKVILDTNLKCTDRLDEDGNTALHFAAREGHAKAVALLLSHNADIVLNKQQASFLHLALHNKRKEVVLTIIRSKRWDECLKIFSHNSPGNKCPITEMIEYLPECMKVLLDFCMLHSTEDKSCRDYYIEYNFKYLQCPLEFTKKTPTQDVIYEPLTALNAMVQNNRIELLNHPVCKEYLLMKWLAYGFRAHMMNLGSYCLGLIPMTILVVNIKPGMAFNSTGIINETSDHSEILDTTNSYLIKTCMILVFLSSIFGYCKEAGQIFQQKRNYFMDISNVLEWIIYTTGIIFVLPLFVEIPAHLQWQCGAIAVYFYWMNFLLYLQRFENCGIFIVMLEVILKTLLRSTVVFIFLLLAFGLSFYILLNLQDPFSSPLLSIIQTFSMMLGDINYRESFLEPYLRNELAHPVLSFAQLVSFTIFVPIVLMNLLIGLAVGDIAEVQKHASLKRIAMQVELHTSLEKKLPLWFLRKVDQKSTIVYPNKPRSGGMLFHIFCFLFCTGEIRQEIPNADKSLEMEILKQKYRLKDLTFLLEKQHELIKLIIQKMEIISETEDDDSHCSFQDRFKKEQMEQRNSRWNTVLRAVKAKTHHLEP
Experimental: Cell Culture and Transfection. CD4^+ Myla cell line was cultured in RPMI 1640 media (GIBCO), supplemented with 2 mM Glutamine (GIBCO), 100 U/mL IL-2 (Sigma), 100 U/mL IL-4 (Sigma), and 10% human AB serum (Sigma). HuT 102 cell line was cultured in RPMI 1640 supplemented with pyruvate, HEPES, and 10% (v/v) fetal bovine serum (HyClone). HEK293-hTRPA1 stable cell line was cultured in MEM (GIBCO) containing 2 mM Glutamine, 4 μg/mL Blasticidin, 10% FBS (v/v). B16 and CHO cells were cultured in high glucose (4.5 g/L) Dulbecco's Modified Eagle's Medium (GIBCO) containing 10% (v/v) fetal bovine serum (GIBCO). Culture media were supplemented with 50 units/mL of penicillin and 50 μg/mL streptomycin, and cultures were maintained with 5% CO2 in 37° C. incubator. Transfection (2 μg cDNA) was performed with Lipofectamine™ 2000 Reagent (Invitrogen) at 80% confluency and the transfected cells were cultured in the same media for 48 hr before electrophysiological and biochemical studies.
Whole-Cell Patch Clamp Recordings in HEK293 Cells, CHO Cells, and DRG Neurons. Whole-cell patch clamp recordings were performed at room temperature using an Axopatch-200B amplifier (Axon Instruments) with a Digidata 1440B (Axon Instruments). In this study, we only examined small-diameter mouse DRG neurons (<25 μM) and small-diameter human DRG neurons (<55 μM). The patch pipettes were pulled from borosilicate capillaries (World Precision Instruments) using a P-97 Flaming/Brown micropipette puller (Sutter Instrument). Pipette resistance was 4-6 MΩ for whole-cell and outside-out recording. For inward current recordings in mouse and human DRG neurons, HEK293 cells, and CHO cells, the internal solution contains (in mM): 140 CsCl, 10 EGTA, 10 HEPES, and 2 Mg-ATP, adjusted to pH 7.3 with CsOH. Whole cell recordings were performed in an extracellular solution that contains (in mM): 140 NaCl, 5 KCl, 2 MgCl2, 10 HEPES, and 10 glucose, adjusted to pH 7.4 with NaOH and osmolarity to 300-310 mOsm. […] Action potential recordings were performed in small-diameter DRG neurons, with the following solutions: i) internal pipette solution contains: 126 mM K-gluconate, 10 mM NaCl, 1 mM MgCl2, 10 mM EGTA, 10 mM HEPES and 2 mM Na-ATP, adjusted to pH 7.4 with KOH and osmolarity to 295-300 mOsm), and ii) extracellular solution contains: 140 mM NaCl, 5 mM KCl, 2 mM MgCl2, 2 mM CaCl2, 10 mM HEPES, 10 mM glucose, adjusted to pH 7.4 with KOH.

[6] = test system: human DRG neurons; experiment: Whole-cell patch clamp, inward currents in human DRG neurons; type: cell-based; settings: 10 μM; small diameters
Experimental: Non-diseased human DRGs were obtained from donors through National Disease Research Interchange (NDRI) with permission of exemption from the Duke University Institutional Review Board (IRB). Postmortem L3-L5 DRGs were dissected from 4 donors and delivered in ice cold culture medium to the laboratory at Duke University within 24-72 hr of the donor's death. Upon the delivery, DRGs were rapidly dissected from nerve roots and minced in a calcium-free HBSS (GIBCO). Human DRG cultures were prepared as previously reported (Chang et al., Neurosci. Bull. 2018, 34, 4-12; Han et al., Neuron 2016, 92, 1279-1293). DRGs were digested at 37° C. in a humidified CO2 incubator for 120 min with collagenase Type II (Worthington, 290 units/mg, 12 mg/mL final concentration) and dispase II (Roche, 1 unit/mg, 20 mg/mL) in PBS with 10 mM HEPES, pH adjusted to 7.4 with NaOH. DRGs were mechanically dissociated using fire-polished pipettes, filtered through a 100 μm nylon mesh and centrifuged (500 g for 5 min). The pellet was resuspended, plated on 0.5 mg/mL poly-D-lysine-coated glass coverslips, and grown in Neurobasal medium supplemented with 10% FBS, 2% B-27 supplement, and 1% penicillin/streptomycin. Whole-cell patch-clamp recordings in small (<[…]) human DRG neurons were conducted at room temperature using patch pipettes with resistances of 3-4 MΩ.
Whole-Cell Patch Clamp Recordings in HEK293 Cells, CHO Cells, and DRG Neurons. Whole-cell patch clamp recordings were performed at room temperature using an Axopatch-200B amplifier (Axon Instruments) with a Digidata 1440B (Axon Instruments). In this study, we only examined small-diameter mouse DRG neurons (<25 μM) and small-diameter human DRG neurons (<55 μM). The patch pipettes were pulled from borosilicate capillaries (World Precision Instruments) using a P-97 Flaming/Brown micropipette puller (Sutter Instrument). Pipette resistance was 4-6 MΩ for whole-cell and outside-out recording. […]

[7] = test system: mice; experiment: Back model: intradermal nape injection, scratching; type: in vivo, mouse; settings: 1 mM, 10 μL
Experimental: as §3

CCN(CC)CCCC(C)Nc1ccnc2cc(Cl)ccc12 (centres unmarked) [CQ, chloroquine]
miR-711-responsive TG neurons that also responded [1]: 76%
TG neurons responding (calcium) [1]: 9.3%
miR-711-responsive DRG neurons that also responded [2]: 66.7%
DRG neurons showing Ca2+ increase / responses [2]: 5.1%

CC(C)c1ccc(NC(=O)Cn2cnc3c2c(=O)n(C)c(=O)n3C)cc1 [HC30031, 2-(1,3-Dimethyl-2,6-dioxo-1,2,3,6-tetrahydro-7H-purin-7-yl)-N-(4-isopropylphenyl)acetamide]
effect on CTCL-evoked chronic itch [3]: suppressed

NCCc1c[nH]cn1 [histamine]
miR-711-responsive TG neurons that also responded [1]: 52%
TG neurons responding (calcium) [1]: 6.9%
miR-711-responsive DRG neurons that also responded [2]: 61.9%
DRG neurons showing Ca2+ increase / responses [2]: 5.5%

AAAAAAA: Mmu-miR-711 mutant: aaaaaaa (SEQ ID NO: 17) (listed as RNA, chemistry not given here)
scratching after intradermal injection of 7-nucleotide oligos [4]: did not affect
wiping after intradermal injection of 7-nucleotide oligos [4]: did not affect

GGGACCC: mmu-miR-711 core: gggaccc (SEQ ID NO: 1) (listed as RNA, chemistry not given here)
inward currents [5]: inward currents induced
scratching after intradermal injection of 7-nucleotide oligos [4]: sufficient to elicit scratching
wiping after intradermal injection of 7-nucleotide oligos [4]: not wiping

hsa-miR-642b-3p: hsa-miR-642b-3p: agacacauuuggagagggaccc (SEQ ID NO: 10) (AGACACAUUUGGAGAGGGACCC; listed as RNA, chemistry not given here)
inward currents in human DRG neurons [6]: induced similar inward currents
scratching (itch) after intradermal cheek injection [4]: resulted in pruritus
wiping (pain) after intradermal cheek injection [4]: failed to elicit wiping

hsa-miR-711: hsa-miR-711: gggacccagggagagagacguaag (SEQ ID NO: 9) (GGGACCCAGGGAGAGAGACGUAAG; listed as RNA, chemistry not given here)
inward currents in human DRG neurons [6]: evoked TRPA1-dependent inward currents
scratching (itch) after intradermal cheek injection [4]: able to evoke pruritus
wiping (pain) after intradermal cheek injection [4]: failed to elicit wiping

m1: mutant of miR-711: aaaacccggggagagauguaag (SEQ ID NO: 11) (AAAACCCGGGGAGAGAUGUAAG; listed as RNA, chemistry not given here)
scratching (itch) after intradermal cheek injection [4]: marked reduction in scratching

m2: mutant of miR-711: gggaaaaggggagagauguaag (SEQ ID NO: 12) (GGGAAAAGGGGAGAGAUGUAAG; listed as RNA, chemistry not given here)
scratching (itch) after intradermal cheek injection [4]: marked reduction in scratching

miR-155: mmu-miR-155: uuaaugcuaauugugauaggggu (SEQ ID NO: 7) (UUAAUGCUAAUUGUGAUAGGGGU; listed as RNA, chemistry not given here)
scratching after intradermal injection on the nape of neck [7]: no effects
wiping (pain) after intradermal cheek injection [4]: Neither did

miR-326: mmu-miR-326: gggggcagggccuuugugaaggcg (SEQ ID NO: 8) (GGGGGCAGGGCCUUUGUGAAGGCG; listed as RNA, chemistry not given here)
scratching after intradermal injection on the nape of neck [7]: no effects
wiping (pain) after intradermal cheek injection [4]: Neither did

Reference: patent US20210283163A1, “COMPOSITIONS AND METHODS FOR THE TREATMENT OF ACUTE AND CHRONIC PRURITIS” (Duke University, priority 2018, published 2021)
